Results from PMC7642786, “Experimental phasing with vanadium and application to nucleotide-binding membrane proteins” (IUCrJ, 2020).

Biological target: T1, McjD (antibacterial peptide ATP-binding cassette transporter) (Escherichia coli, UniProt Q9X2W0)
T1 construct: full-length, detergent (dodecyl maltopyranoside) purified, ~66 kDa, 580 residues per vanadium, homodimer; prepared as described previously
Experiment: X-ray crystallography (V-SAD, […] Å, phased anomalous difference maps)
Conditions: complex formed with 2 mM ATP, 2 mM sodium orthovanadate, 5 mM MgCl2, pH 7.8; post-hydrolysis ADP-VO4 state; one site per monomer

T1 sequence (Q9X2W0 whole entry): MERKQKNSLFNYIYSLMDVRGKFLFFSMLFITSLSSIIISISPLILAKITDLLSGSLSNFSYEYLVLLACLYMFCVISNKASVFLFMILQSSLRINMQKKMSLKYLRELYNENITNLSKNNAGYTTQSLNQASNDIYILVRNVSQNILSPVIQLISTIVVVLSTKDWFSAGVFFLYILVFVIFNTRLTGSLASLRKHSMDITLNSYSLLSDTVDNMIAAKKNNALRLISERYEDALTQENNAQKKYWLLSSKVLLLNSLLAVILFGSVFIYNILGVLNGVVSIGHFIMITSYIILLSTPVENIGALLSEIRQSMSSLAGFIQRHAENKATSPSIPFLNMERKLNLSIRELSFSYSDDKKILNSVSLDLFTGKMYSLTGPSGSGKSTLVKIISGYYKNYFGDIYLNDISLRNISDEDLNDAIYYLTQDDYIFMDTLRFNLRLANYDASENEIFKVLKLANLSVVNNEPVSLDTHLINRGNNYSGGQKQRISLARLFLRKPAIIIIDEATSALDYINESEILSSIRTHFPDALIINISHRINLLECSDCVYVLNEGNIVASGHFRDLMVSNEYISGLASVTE

[O]=[V]([OH])([OH])[OH] [VO4]
X-ray crystallography (V-SAD, 3.4 Å, phased anomalous difference maps): two vanadium sites (one per monomer) could easily be located
